Experimental data from US20230277534A1 (Plexxikon Inc., priority 2011, published 2023).

How the values were obtained:
[1] = test system: IPC-298 human melanoma cell line that expresses activated NRAS; test: IPC-298_P-ERK cell activation assay (phosphorylated ERK, AlphaScreen); format: cell-based; conditions: 1 h, IPC-298 cells, P-ERK activation, compound for one hour
Procedure: B9 is a squamous cell carcinoma cell line expressing activated HRAS that was isolated from a DMBA/TPA-induced mouse model of skin carcinogenesis (Stoler, et al. The Journal of Cell Biology, 1993, 122(5), 1103-17). IPC-298 is a human melanoma cell line that expresses activated NRAS (Aubert, et al. International Journal of Cancer, 1993, 54(5), 784-92). To determine whether compounds induce phosphorylated ERK and MEK, cells are plated in a 96-well dish and treated with an 8-point titration of compound for one hour at 37° C. The media is then removed and the cells are incubated with lysis buffer containing protease and phosphatase inhibitors. Phosphorylated ERK and MEK in the resulting lysates is detected using AlphaScreen™ technology. To detect phosphorylated ERK, cell lysates are incubated with streptavidin-coated donor beads, anti-mouse IgG acceptor beads, a biotinylated anti-ERK1/2 rabbit antibody, and a mouse antibody that recognizes ERK1/2 only when it is phosphorylated on Thr202 and Tyr204. The biotinylated ERK1/2 antibody will bind to both the streptavidin-coated donor beads and to ERK1/2 (regardless of its phosphorylation state), and the phospho-ERK1/2 antibody will bind to the acceptor beads and to ERK1/2 that is phosphorylated at Thr202/Tyr204. Excitation of the beads with laser light at 680 nm produces singlet oxygen, which is rapidly quenched unless the beads are in close proximity. When ERK is phosphorylated, both antibodies can bind the same protein, bringing the donor and acceptor beads into close proximity, producing a signal that can be measured at 580 nm. MEK phosphorylation is detected using a similar approach, only with antibodies directed against total MEK1/2 and MEK1/2 that is phosphorylated at Ser217 and Ser221.

[2] = biological target: B-Raf V600E (Homo sapiens (Human), UniProt P15056, V600E); test: B-Raf V600E kinase biochemical activity assay (AlphaScreen, biotin-MEK1 substrate); conditions: 100 μM ATP
How it was run: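 B-Raf V600E (0.1 ng) phosphorylated 100 nM biotin-MEK1 with 100 μM ATP (final) in HEPES pH 7.0 with Mg2+/Mn2+ for 45 min at room temperature. Compounds were tested over an 8-point serial dilution. Phospho-MEK1/2 was detected by AlphaScreen after 3 h with beads, and IC50 came from signal versus concentration.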

[3] = test system: COLO205 colon adenocarcinoma cells (B-Raf V600E mutation); test: COLO205 cell growth inhibition (ATPlite); format: cell-based; conditions: Homo sapiens, COLO 205, 72 h, 3 days
How it was run: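 Cells treated for 3 days at 37 °C, 5% CO2 with an 8-point 1:3 dilution series, top final concentration 10 μM, DMSO control. ATPlite luminescence used as a measure of cell number; IC50 from reading versus concentration.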

[4] = test system: A375 melanoma cells (B-Raf V600E mutation); test: A375 (A375_P-ERK) cell activity / cell growth inhibition; format: cell-based; conditions: Homo sapiens, A-375
Procedure: Compounds are assessed in a variety of cell based assays.
On day 1, cells are counted, then centrifuged in a conical tube for 5 minutes at 1000 rpm.
On day 2, compound at a maximum concentration of 5 mM is serially diluted 1:3 (e.g. 10 μL with 30 μL dimethyl sulfoxide) for a total of 8 point titration with DMSO as a control. A 1 μL aliquot of each dilution point and control is added to 249 μL growth media and 50 μL is added to a well containing cells, providing 10 μM compound at the maximum concentration point. The cells are incubated for 3 days at 37° C. in 5% CO2.
ATPlite is added 25 μL to each well, shake for 2 minutes, and the cells are incubated at room temperature for 10 minutes, then luminescence is read on Safire reader. The measured luminescence correlates directly with cell number, such that the reading as a function of compound concentration is used to determine the IC50 value.

Sequence of B-Raf V600E (P15056 whole entry V600E): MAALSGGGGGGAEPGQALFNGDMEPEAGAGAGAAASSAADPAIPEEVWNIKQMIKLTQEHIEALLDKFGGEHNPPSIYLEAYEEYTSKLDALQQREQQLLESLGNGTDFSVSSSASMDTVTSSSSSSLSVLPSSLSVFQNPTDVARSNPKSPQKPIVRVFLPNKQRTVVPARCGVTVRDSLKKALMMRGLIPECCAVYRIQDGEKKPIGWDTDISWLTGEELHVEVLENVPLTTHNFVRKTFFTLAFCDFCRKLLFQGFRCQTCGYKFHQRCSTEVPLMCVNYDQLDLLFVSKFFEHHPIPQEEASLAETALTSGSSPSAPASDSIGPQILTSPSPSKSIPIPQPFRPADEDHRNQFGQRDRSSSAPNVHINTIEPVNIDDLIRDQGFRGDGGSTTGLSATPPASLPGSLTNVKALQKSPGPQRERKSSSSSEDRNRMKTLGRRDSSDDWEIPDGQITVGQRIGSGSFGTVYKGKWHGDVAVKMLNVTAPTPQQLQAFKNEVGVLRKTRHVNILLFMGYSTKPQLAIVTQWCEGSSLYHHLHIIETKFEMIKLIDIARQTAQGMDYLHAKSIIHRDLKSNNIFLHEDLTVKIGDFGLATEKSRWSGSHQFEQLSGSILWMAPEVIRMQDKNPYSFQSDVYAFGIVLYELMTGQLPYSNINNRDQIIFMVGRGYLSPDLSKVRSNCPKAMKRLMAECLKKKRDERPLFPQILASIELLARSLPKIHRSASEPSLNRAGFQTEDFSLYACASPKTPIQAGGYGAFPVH

Compound	EC50 [1] [µM]	IC50 [2] [µM]	IC50 [3] [µM]	IC50 [4] [µM]
COc1cc(-c2cnc3[nH]cc(C(=O)c4cccc(NS(=O)(=O)N5CCCC5)c4F)c3c2)ccc1C#N [Compound P-0049, N-[3-[5-(4-cyano-3-methoxy-phenyl)-1H-pyrrolo[2,3-b]pyridine-3-carbonyl]-2-fluoro-phenyl]pyrrolidine-1-sulfonamide]	> 4	< 0.1	< 1	
N#CC1(c2ccc(-c3cnc4[nH]cc(C(=O)c5cccc(NS(=O)(=O)N6CCCC6)c5F)c4c3)cc2)CC1 [Compound P-0050, N-[3-[5-[4-(1-cyanocyclopropyl)phenyl]-1H-pyrrolo[2,3-b]pyridine-3-carbonyl]-2-fluoro-phenyl]pyrrolidine-1-sulfonamide]	> 10	< 0.1	< 1	
CC(C)c1ncc(-c2cnc3[nH]cc(C(=O)c4cccc(NS(=O)(=O)N(C)C)c4F)c3c2)cn1 [Compound P-0051, 3-[3-(dimethylsulfamoylamino)-2-fluoro-benzoyl]-5-(2-isopropylpyrimidin-5-yl)-1H-pyrrolo[2,3-b]pyridine]	> 10	< 0.1	< 1	
CN(C)S(=O)(=O)Nc1cccc(C(=O)c2c[nH]c3ncc(-c4cnc(C5CC5)nc4)cc23)c1F [Compound P-0052, 5-(2-cyclopropylpyrimidin-5-yl)-3-[3-(dimethylsulfamoylamino)-2-fluoro-benzoyl]-1H-pyrrolo[2,3-b]pyridine]	> 10	< 0.1	< 1	
CN(C)S(=O)(=O)Nc1cccc(C(=O)c2c[nH]c3ncc(-c4ccc(C(F)(F)F)nc4)cc23)c1F [Compound P-0053, 3-[3-(dimethylsulfamoylamino)-2-fluoro-benzoyl]-5-[6-(trifluoromethyl)-3-pyridyl]-1H-pyrrolo[2,3-b]pyridine]	> 10	< 0.1	< 1	
COc1cc(-c2cnc3[nH]cc(C(=O)c4cccc(NS(=O)(=O)N(C)C)c4F)c3c2)ccc1C#N [Compound P-0054, 5-(4-cyano-3-methoxy-phenyl)-3-[3-(dimethylsulfamoylamino)-2-fluoro-benzoyl]-1H-pyrrolo[2,3-b]pyridine]	> 1	< 0.1	> 1	
CN(C)S(=O)(=O)Nc1cccc(C(=O)c2c[nH]c3ncc(-c4ccc(C5(C#N)CC5)cc4)cc23)c1F [Compound P-0055, 5-[4-(1-cyanocyclopropyl)phenyl]-3-[3-(dimethylsulfamoylamino)-2-fluoro-benzoyl]-1H-pyrrolo[2,3-b]pyridine]	> 10	< 0.1	< 1	
CCN(C)S(=O)(=O)Nc1cccc(C(=O)c2c[nH]c3ncc(-c4cnc(C)nc4)cc23)c1F [Compound P-0056, 3-[3-[[ethyl(methyl)sulfamoyl]amino]-2-fluoro-benzoyl]-5-(2-methylpyrimidin-5-yl)-1H-pyrrolo[2,3-b]pyridine]	> 10	< 0.1	< 1	
CCN(C)S(=O)(=O)Nc1cccc(C(=O)c2c[nH]c3ncc(-c4cnc(C(C)C)nc4)cc23)c1F [Compound P-0057, 3-[3-[[ethyl(methyl)sulfamoyl]amino]-2-fluoro-benzoyl]-5-(2-isopropylpyrimidin-5-yl)-1H-pyrrolo[2,3-b]pyridine]	> 10	< 0.1	< 1	
CCN(C)S(=O)(=O)Nc1cccc(C(=O)c2c[nH]c3ncc(-c4cnc(C5CC5)nc4)cc23)c1F [Compound P-0058, 5-(2-cyclopropylpyrimidin-5-yl)-3-[3-[[ethyl(methyl)sulfamoyl]amino]-2-fluoro-benzoyl]-1H-pyrrolo[2,3-b]pyridine]	> 10	< 0.1	< 1	
CCN(C)S(=O)(=O)Nc1cccc(C(=O)c2c[nH]c3ncc(-c4ccc(C(F)(F)F)nc4)cc23)c1F [Compound P-0059, 3-[3-[[ethyl(methyl)sulfamoyl]amino]-2-fluoro-benzoyl]-5-[6-(trifluoromethyl)-3-pyridyl]-1H-pyrrolo[2,3-b]pyridine]	> 10	< 0.1	< 1	
CCN(C)S(=O)(=O)Nc1cccc(C(=O)c2c[nH]c3ncc(-c4ccc(C#N)c(OC)c4)cc23)c1F [Compound P-0060, 5-(4-cyano-3-methoxy-phenyl)-3-[3-[[ethyl(methyl)sulfamoyl]amino]-2-fluoro-benzoyl]-1H-pyrrolo[2,3-b]pyridine]	> 2	< 0.1	< 1	
O=C(c1cccc(NS(=O)(=O)N2CCCC2)c1F)c1c[nH]c2ncc(-c3ccc(F)cc3)cc12 [Compound P-0062, N-[2-fluoro-3-[5-(4-fluorophenyl)-1H-pyrrolo[2,3-b]pyridine-3-carbonyl]phenyl]pyrrolidine-1-sulfonamide]	> 10	< 0.1	< 1	
O=C(c1cccc(NS(=O)(=O)N2CCCC2)c1F)c1c[nH]c2ncc(-c3ccccc3)cc12 [Compound P-0063, N-[2-fluoro-3-(5-phenyl-1H-pyrrolo[2,3-b]pyridine-3-carbonyl)phenyl]pyrrolidine-1-sulfonamide]	> 10	< 0.1	< 1	
CN(C)S(=O)(=O)Nc1cccc(C(=O)c2c[nH]c3ncc(-c4cnc(NC5CC5)nc4)cc23)c1F [Compound P-0064, 5-[2-(cyclopropylamino)pyrimidin-5-yl]-3-[3-(dimethylsulfamoylamino)-2-fluoro-benzoyl]-1H-pyrrolo[2,3-b]pyridine]	> 10	< 0.1	< 1	
CC(C)N(C)S(=O)(=O)Nc1cccc(C(=O)c2c[nH]c3ncc(-c4cnc(C5CC5)nc4)cc23)c1F [Compound P-0233, 5-(2-cyclopropylpyrimidin-5-yl)-3-[2-fluoro-3-[[isopropyl(methyl)sulfamoyl]amino]benzoyl]-1H-pyrrolo[2,3-b]pyridine]		< 0.1	> 1	> 1
CC(C)(O)c1nc(-c2cnc3[nH]cc(C(=O)c4c(F)ccc(NS(=O)(=O)N5CCCC5)c4F)c3c2)cs1 [Compound P-0265, N-[2,4-difluoro-3-[5-[2-(1-hydroxy-1-methyl-ethyl)thiazol-4-yl]-1H-pyrrolo[2,3-b]pyridine-3-carbonyl]phenyl]pyrrolidine-1-sulfonamide]	> 2	< 0.1	< 1	
O=C(c1c(F)ccc(NS(=O)(=O)N2CCCC2)c1F)c1c[nH]c2ncc(-c3ccnc(C4CC4)c3)cc12 [Compound P-0295, N-[3-[5-(2-cyclopropyl-4-pyridyl)-1H-pyrrolo[2,3-b]pyridine-3-carbonyl]-2,4-difluoro-phenyl]pyrrolidine-1-sulfonamide]	> 2	< 0.1	< 1	
CNS(=O)(=O)Nc1ccc(F)c(C(=O)c2c[nH]c3ncc(-c4cnc(C5CC5)nc4)cc23)c1F [Compound P-0334, [5-(2-cyclopropylpyrimidin-5-yl)-1H-pyrrolo[2,3-b]pyridin-3-yl]-[2,6-difluoro-3-(methylsulfamoylamino)phenyl]methanone]	> 2	< 0.1	> 1	
